Data published in patent EP4653444A1, “FUSED TRICYCLIC COMPOUND AS KINASE INHIBITOR” (Hangzhou Innogate Pharma Co., Ltd., priority 2023, dated 2024).
Where two headings read alike, the source gives them in different places.

Columns and labels:
[1] = Pharmacokinetic study in rats; conditions: rat, plasma, po, 3 mg/kg
Experimental: Pharmacokinetic parameters were calculated by statistical moment method using WinNonLin 8.0 software, mainly including Tmax, T1/2, Cmax and AUC0-24h.
Animals: Three male SD rats weighing 200-220 g were used. After purchase, they were housed in the laboratory animal center for 2 days before experiment. […] Blood samples were collected at scheduled time points after oral gavage.
Vehicle: 0.4% ethanol + 0.4% Tween 80 + 99.2% (0.5% methylcellulose M450). Preparation of oral gavage solution: The compound was accurately weighed and dissolved in vehicle by ultrasonication for 5 min at room temperature to prepare 0.3 mg/mL drug solution.
Single compound administration was also used to study pharmacokinetics in rats.
Blood sample collection: After oral gavage, blood samples were collected from orbital sinus at 0.25, 0.5, 1, 2, 4, 8, 10 and 24 h. 50 µL plasma was mixed with 200 µL acetonitrile (containing 2 ng/mL verapamil as internal standard). The mixture was vortexed for 3 min, then centrifuged at 20000 rcf for 10 min at 4 °C. The supernatant was analyzed by LC-MS/MS.
Standard curves were established by accurately weighing and preparing compounds at different concentrations for mass spectrometric quantification. Compound concentrations in plasma samples were determined based on standard curves to obtain concentration-time profiles. All measurement data were collected and processed by relevant software. Pharmacokinetic parameters (including Tmax, T1/2, Cmax and AUC0-24h) were calculated by statistical moment method.

[2] = target: T1, FAK kinase (Homo sapiens, UniProt Q05397); experiment: FAK kinase activity inhibition assay, method A (HTRF); assay type: biochemical
Experimental: (§1) The HTRF method was used to evaluate the inhibitory activity of the compounds against FAK kinase. […]. The reaction conditions were: FAK kinase at 0.1 ng/µL; ATP 10 µM; substrate concentration 1 µM. Compounds were serially diluted in DMSO and shaken on a shaker for 20 minutes. Prepare 2× kinase using 1× reaction buffer. Transfer 25 nL compound to a 384-well plate using Echo 655. Add 2.5 µL kinase per well. Seal the plate with sealing film, centrifuge at 1000 rpm for 60 seconds, and incubate at 25°C for 12 hours. Prepare 2× ATP/substrate mix using 1× enzyme reaction buffer and add 2.5 µL 2× ATP/substrate mix per well. Seal the plate with sealing film, centrifuge at 1000 rpm for 60 seconds, and incubate at 25°C for 50 minutes. Prepare 2×XL665 & antibody solution using HTRF detection buffer, and add 5 µL per well. Incubate at 25°C for 60 minutes. Read fluorescence at 620 nm (Cryptate) and 665 nm (XL665). Calculate the ratio per well (Ratio_665/620 nm). % Inhibition = 100% - [(Compound Ratio - Positive Control Ratio)/ (Negative Control Ratio - Positive Control Ratio)] × 100%. IC50 values (half-maximal inhibitory concentration) were calculated by nonlinear regression using GraphPad Prism 7.0. Y = Bottom + (Top - Bottom)/ (1 + 10^ ((LogIC50 - X) × Hill Slope)), where X is the log of compound concentration and Y is the % inhibition.

[3] = target: T1, FAK kinase; experiment: FAK kinase activity inhibition assay, method A (HTRF) and method B (Lantha screen); assay type: biochemical
Experimental: as §1
The Lantha screen assay was used to evaluate the FAK kinase inhibitory activity. Compounds were dissolved in 100% DMSO at 10 mM stock concentration. Prepare 1× kinase buffer (25 mM HEPES, pH 7.5, 0.01 mM Triton, 0.5 mM EGTA, 0.01% Brij-35). Dilute compounds in a gradient, and transfer 5 µL compound into the reaction plate. Prepare 2× kinase solution with 1× Kinase buffer. Add 5 µL kinase solution to compound and positive control wells, and 5 µL 1× Kinase buffer to negative control wells. Mix reaction plate by shaking. Prepare 4× ATP/Fluorescein-polyGT substrate mix with 1× Kinase buffer. Add 2.5 µL substrate solution to initiate the reaction. Shake and incubate at room temperature for 30 minutes. Prepare 2× detection reagent (2 nM antibody, 10 mM EDTA) and add 10 µL per well to stop the reaction. Briefly centrifuge, mix, and incubate for 60 minutes. Read fluorescence at 340 nm excitation and 520 nm/495 nm emission using EnVision. Collect data and calculate 520 nm/495 nm ratio. Calculate the inhibition percentage using the formula: % Inhibition = (Max - Sample Ratio)/(Max - Min) × 100, where min is the mean of negative control wells (no enzyme activity), and max is the mean of positive control wells (DMSO-inhibited conversion rate).Use XLFit Excel add-in version 5.4.0.8 to determine the IC50 values of each compound against the enzyme activity: Y = Bottom + (Top - Bottom)/(1 + (IC50/X)^HillSlope).

[4] = target: T2, TNK1 kinase (Homo sapiens, UniProt Q13470); experiment: TNK1 kinase activity inhibition assay (ADP-Glo); assay type: biochemical
T2 sequence (Q13470 1-666): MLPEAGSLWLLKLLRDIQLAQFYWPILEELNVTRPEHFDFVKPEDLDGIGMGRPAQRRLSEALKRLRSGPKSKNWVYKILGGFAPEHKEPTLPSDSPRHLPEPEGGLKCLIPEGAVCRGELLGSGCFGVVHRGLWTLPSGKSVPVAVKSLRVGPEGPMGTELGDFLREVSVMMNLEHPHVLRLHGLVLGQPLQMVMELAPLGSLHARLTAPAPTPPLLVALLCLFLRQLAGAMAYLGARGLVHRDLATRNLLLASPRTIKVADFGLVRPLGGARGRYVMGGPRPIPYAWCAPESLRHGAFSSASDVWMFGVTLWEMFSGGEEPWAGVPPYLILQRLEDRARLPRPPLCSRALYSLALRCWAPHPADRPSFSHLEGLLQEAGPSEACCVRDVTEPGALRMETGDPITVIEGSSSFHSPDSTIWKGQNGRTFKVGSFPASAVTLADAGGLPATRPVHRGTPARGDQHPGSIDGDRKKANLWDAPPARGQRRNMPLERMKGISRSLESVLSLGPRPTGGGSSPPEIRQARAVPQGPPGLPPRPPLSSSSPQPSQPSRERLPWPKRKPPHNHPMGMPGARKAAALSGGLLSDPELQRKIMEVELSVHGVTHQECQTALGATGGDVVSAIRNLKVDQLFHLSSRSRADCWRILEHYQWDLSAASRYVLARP
Experimental: Measure compound inhibitory activity against TNK1 kinase using ADP-Glo Assay. 1× kinase reaction buffer was prepared (working concentrations: HEPES 50 mM, MgCl2 10 mM, Brij35 0.01%, EGTA 1 mM, DTT 2 mM). 2× kinase and 4× substrate buffers were prepared with the following working concentrations: For TNK1 kinase: kinase solution at 5 nM; substrate mixture containing ATP at 45 µM and MBP substrate at 0.1 mg/ mL. For ULK2 kinase: kinase solution at 0.15 nM; substrate mixture containing ATP at 6 µM and MBP substrate at 0.1 mg/mL. Compounds were serially diluted in DMSO and shaken on an orbital shaker for 20 minutes. 2× kinase solution was prepared using 1× kinase reaction buffer. 20 nL of compound solution was transferred to a 384-well plate. 2 µL of kinase solution was added to each well of the reaction plate. The plate was sealed with adhesive film, centrifuged at 1000 rpm for 60 seconds, and incubated at 25°C for 10 minutes. 2× ATP&MBP mixture was prepared using 1× kinase reaction buffer. 2 µL of 2× ATP&substrate mixture was added to the reaction plate. The plate was sealed with adhesive film, centrifuged at 1000 rpm for 60 seconds, and incubated at 25°C for 60 minutes. 4 µL of ADP-Glo reagent was transferred to the 384-well reaction plate, centrifuged at 1000 rpm for 1 minute, and incubated at 25°C for 40 minutes. 8 µL of Detection solution was transferred to the 384-well reaction plate, centrifuged at 1000 rpm for 1 minute, and incubated at 25°C for 40 minutes. Relative luminescence units (RLU) were measured using a BMG microplate reader, with signal intensity representing kinase activity level. The inhibition percentage was calculated as follows: % inhibition = 100% - [(Compound RLU - Positive Control RLU)/(Negative Control RLU - Positive Control RLU)] × 100%. The IC50 values (half-maximal inhibitory concentration) of compounds were determined by fitting the data to the following nonlinear regression equation using GraphPad Prism 7.0 software: Y = Bottom + (Top - Bottom)/(1 + 10^((LogIC50 - X) × Hill Slope)), where: X = log(compound concentration), Y = % inhibition. Table1: Inhibitory activity of compounds against ULK (IC50, nM)

[5] = Table 2, HTRF, ATP 10 µM, read-out: FAK (method A) (IC50)
[6] = Table 4, read-out: FAK(method A and method B) (IC50)

T1 sequence (Q05397 whole entry): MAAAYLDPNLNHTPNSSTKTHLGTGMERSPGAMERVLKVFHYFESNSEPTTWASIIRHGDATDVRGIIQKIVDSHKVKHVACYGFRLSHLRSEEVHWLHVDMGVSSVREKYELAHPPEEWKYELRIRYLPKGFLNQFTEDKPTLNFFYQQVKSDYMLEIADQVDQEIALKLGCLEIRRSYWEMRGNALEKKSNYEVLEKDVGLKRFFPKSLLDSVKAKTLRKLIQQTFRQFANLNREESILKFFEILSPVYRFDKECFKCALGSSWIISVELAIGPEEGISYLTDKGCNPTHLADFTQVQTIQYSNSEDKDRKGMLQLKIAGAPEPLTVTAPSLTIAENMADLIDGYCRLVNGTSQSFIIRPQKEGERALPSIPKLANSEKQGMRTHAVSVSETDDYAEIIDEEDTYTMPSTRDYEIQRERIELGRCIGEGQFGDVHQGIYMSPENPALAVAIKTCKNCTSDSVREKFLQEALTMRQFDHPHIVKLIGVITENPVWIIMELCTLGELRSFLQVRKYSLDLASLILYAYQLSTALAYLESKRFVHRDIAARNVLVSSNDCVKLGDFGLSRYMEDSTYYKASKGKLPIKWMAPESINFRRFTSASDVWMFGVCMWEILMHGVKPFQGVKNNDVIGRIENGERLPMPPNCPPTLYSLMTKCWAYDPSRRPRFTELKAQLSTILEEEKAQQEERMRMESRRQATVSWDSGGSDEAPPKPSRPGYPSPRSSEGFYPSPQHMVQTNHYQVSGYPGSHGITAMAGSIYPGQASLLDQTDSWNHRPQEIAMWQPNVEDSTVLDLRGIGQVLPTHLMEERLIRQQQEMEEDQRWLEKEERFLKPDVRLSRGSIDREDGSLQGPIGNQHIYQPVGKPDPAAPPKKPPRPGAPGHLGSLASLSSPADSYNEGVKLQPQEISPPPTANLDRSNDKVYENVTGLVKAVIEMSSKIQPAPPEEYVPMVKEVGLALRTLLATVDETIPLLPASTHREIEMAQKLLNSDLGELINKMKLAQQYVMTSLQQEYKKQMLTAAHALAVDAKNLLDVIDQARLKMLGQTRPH

CCc1cc2c(cc1Nc1ncc(C(F)(F)F)c(NCCCN3CCOCCC3=O)n1)OC[C@@H]1CN(C3CCN(C)CC3)CCN21 [Compound A2S]
AUC(0-t) at 24 h [1]: 98 ng·h/mL | Cmax [1]: 11.8 ng/mL | Tmax [1]: 1.17 h | half-life [1]: 423 min

COc1cc2c(cc1Nc1ncc(C(F)(F)F)c(CCc3ccccc3CC(N)=O)n1)OC[C@H]1CN(C)CCN21 [Compound B1R]
IC50 [2, 5]: < 0.5 nM | AUC(0-t) at 24 h [1]: 2330 ng·h/mL | Cmax [1]: 387 ng/mL | Tmax [1]: 2.7 h | half-life [1]: 174 min

COc1cc2c(cc1Nc1ncc(C(F)(F)F)c(CCc3ccccc3CC(N)=O)n1)OC[C@H]1CN(C3CCN(C)CC3)CCN21 [Compound B2R]
IC50 [2]: < 0.5 nM | AUC(0-t) at 24 h [1]: 880 ng·h/mL | Cmax [1]: 76.4 ng/mL | Tmax [1]: 4.7 h | half-life [1]: 444 min

COc1cc2c(cc1Nc1ncc(C(F)(F)F)c(CCc3ccccc3CC(N)=O)n1)OC[C@H]1CNCCN21 [Compound B3R]
IC50 [2, 5]: < 0.5 nM | AUC(0-t) at 24 h [1]: 690 ng·h/mL | Cmax [1]: 68.9 ng/mL | Tmax [1]: 3.3 h | half-life [1]: 474 min

COc1cc2c(cc1Nc1ncc(C(F)(F)F)c(CCc3ccccc3CC(N)=O)n1)OC[C@H]1CN(C3CCOCC3)CCN21 [Compound B4R]
IC50 [2]: < 0.5 nM | AUC(0-t) at 24 h [1]: 568 ng·h/mL | Cmax [1]: 200 ng/mL | Tmax [1]: 0.8 h | half-life [1]: 90 min

COc1cc2c(cc1Nc1ncc(C(F)(F)F)c(CCc3ccccc3CC(N)=O)n1)OC[C@H]1CN(C3CCNCC3)CCN21 [Compound B10R]
IC50 [2, 5]: < 0.5 nM

CC(C)Oc1cc2c(cc1Nc1ncc(Cl)c(Nc3ccccc3S(=O)(=O)C(C)C)n1)OC[C@@H]1CN(C3CCN(C)CC3)CCN21 [Compound C3S]
IC50 ([3]; Table 3, read-out: FAK(method A and B) (IC50)): < 5 nM

CNC(=O)c1ccccc1Nc1cc(Nc2cc3c(cc2OC)N2CCN(C4CCOCC4)C[C@H]2CO3)ncc1C(F)(F)F [Compound D1S]
IC50 [3]: < 0.5 nM | AUC(0-t) at 24 h [1]: 11000 ng·h/mL | Cmax [1]: 2320 ng/mL | Tmax [1]: 1.67 h | half-life [1]: 158 min

CNC(=O)c1ccccc1Nc1cc(Nc2cc3c(cc2OC)N2CCN(C4COC4)C[C@H]2CO3)ncc1C(F)(F)F [Compound D3S]
IC50 [3, 6]: < 1 nM

CCOc1cc2c(cc1Nc1cc(Nc3ccccc3C(=O)NC)c(C(F)(F)F)cn1)OC[C@@H]1CN(C3CCN(C)CC3)CCN21 [Compound D5S]
IC50 [3, 6]: < 1 nM

CNC(=O)c1ccccc1Nc1cc(Nc2cc3c(cc2OC(C)C)N2CCN(C4CCN(C)CC4)C[C@H]2CO3)ncc1C(F)(F)F [Compound D6S]
IC50 [3]: < 3 nM | AUC(0-t) at 24 h [1]: 675 ng·h/mL | Cmax [1]: 52.3 ng/mL | Tmax [1]: 6.67 h | half-life [1]: 344 min

COc1cc2c(cc1Nc1ncc(Cl)c(Nc3cccnc3N3CCCC3=O)n1)OC[C@H]1CNCCN21 [Compound E1R]
IC50 [4]: < 0.5 nM

COc1cc2c(cc1Nc1ncc(Cl)c(Nc3cccnc3N3CCCC3=O)n1)OC[C@H]1CN(C)CCN21 [Compound E2R]
IC50 [4]: < 0.5 nM | AUC(0-t) at 24 h [1]: 332 ng·h/mL | Cmax [1]: 74.4 ng/mL | Tmax [1]: 1 h | half-life [1]: 124 min

COc1cc2c(cc1Nc1ncc(Cl)c(Nc3cccnc3N3CCCC3=O)n1)OC[C@H]1CN(C3CCN(C)CC3)CCN21 [Compound E3R]
IC50 ([4]; Table 5, ATP 45 µM, read-out: TNK1 (IC50)): < 0.5 nM

COc1cc2c(cc1Nc1ncc(Cl)c(Nc3cccnc3N3CCCC3=O)n1)OC[C@H]1CN(C3CCOCC3)CCN21 [Compound E4R]
IC50 [4]: < 0.5 nM | AUC(0-t) at 24 h [1]: 83.9 ng·h/mL | Cmax [1]: 69 ng/mL | Tmax [1]: 0.5 h | half-life [1]: 59.4 min

COc1cc2c(cc1Nc1ncc(Cl)c(Nc3cccnc3N3CCCC3=O)n1)OC[C@H]1CN(C(C)=O)CCN21 [Compound E5R]
IC50 [4]: < 0.5 nM | AUC(0-t) at 24 h [1]: 1560 ng·h/mL | Cmax [1]: 500 ng/mL | Tmax [1]: 1 h | half-life [1]: 82.8 min

CCC(=O)N1CCN2c3cc(OC)c(Nc4ncc(Cl)c(Nc5cccnc5N5CCCC5=O)n4)cc3OC[C@H]2C1 [Compound E6R]
IC50 [4]: < 1 nM | AUC(0-t) at 24 h [1]: 581 ng·h/mL | Cmax [1]: 352 ng/mL | Tmax [1]: 0.5 h | half-life [1]: 63 min

COc1cc2c(cc1Nc1ncc(Cl)c(Nc3cccnc3N3CCCC3=O)n1)OC[C@H]1CN(C(=O)C3CC3)CCN21 [Compound E7R]
IC50 [4]: < 2 nM | AUC(0-t) at 24 h [1]: 473 ng·h/mL | Cmax [1]: 292 ng/mL | Tmax [1]: 0.5 h | half-life [1]: 64.8 min

COc1cc2c(cc1Nc1ncc(Cl)c(Nc3cccnc3N3CCCC3=O)n1)OC[C@H]1CN(C3CN(C)C3)CCN21 [Compound E8R]
IC50 [4]: < 2 nM | AUC(0-t) at 24 h [1]: 3170 ng·h/mL | Cmax [1]: 411 ng/mL | Tmax [1]: 2 h | half-life [1]: 202 min

CCN1CCC(N2CCN3c4cc(OC)c(Nc5ncc(Cl)c(Nc6cccnc6N6CCCC6=O)n5)cc4OC[C@H]3C2)CC1 [Compound E9R]
IC50 [4]: < 1 nM | AUC(0-t) at 24 h [1]: 1200 ng·h/mL | Cmax [1]: 71.6 ng/mL | Tmax [1]: 9.33 h | half-life [1]: 869 min

COc1cc2c(cc1Nc1ncc(Cl)c(Nc3cccnc3N3CCCC3=O)n1)OC[C@H]1CN(C3CCN(C4CC4)CC3)CCN21 [Compound E10R]
IC50 [4]: < 0.5 nM | AUC(0-t) at 24 h [1]: 2000 ng·h/mL | Cmax [1]: 133 ng/mL | Tmax [1]: 3.67 h | half-life [1]: 581 min

COc1cc2c(cc1Nc1ncc(Cl)c(Nc3cccnc3N3CCCC3=O)n1)OC[C@H]1CN(C3CCN(C(C)=O)CC3)CCN21 [Compound E11R]
IC50 [4]: < 1 nM | AUC(0-t) at 24 h [1]: 8110 ng·h/mL | Cmax [1]: 1090 ng/mL | Tmax [1]: 1.33 h | half-life [1]: 262 min
